ChEMBL document CHEMBL1201862, “PubChem BioAssay data set” (2004)
Active and inactive are the calls of the source.

Legend:
[1] = molecular target: Sphingosine 1-phosphate receptor 2 (Homo sapiens, UniProt O95136); assay: Dose Response Cell Based Assay for Agonists of the S1P2 Receptor. [Related pubchem assays: 729, 736, 843 ]; assay type: functional
[2] = molecular target: Ubiquitin carboxyl-terminal hydrolase BAP1 (Homo sapiens, UniProt Q92560); assay: BAP1 deubiquitinase inhibitors, dose response, biochemical (AID 714); assay type: functional
Chain of Ubiquitin carboxyl-terminal hydrolase BAP1 (Q92560 whole entry): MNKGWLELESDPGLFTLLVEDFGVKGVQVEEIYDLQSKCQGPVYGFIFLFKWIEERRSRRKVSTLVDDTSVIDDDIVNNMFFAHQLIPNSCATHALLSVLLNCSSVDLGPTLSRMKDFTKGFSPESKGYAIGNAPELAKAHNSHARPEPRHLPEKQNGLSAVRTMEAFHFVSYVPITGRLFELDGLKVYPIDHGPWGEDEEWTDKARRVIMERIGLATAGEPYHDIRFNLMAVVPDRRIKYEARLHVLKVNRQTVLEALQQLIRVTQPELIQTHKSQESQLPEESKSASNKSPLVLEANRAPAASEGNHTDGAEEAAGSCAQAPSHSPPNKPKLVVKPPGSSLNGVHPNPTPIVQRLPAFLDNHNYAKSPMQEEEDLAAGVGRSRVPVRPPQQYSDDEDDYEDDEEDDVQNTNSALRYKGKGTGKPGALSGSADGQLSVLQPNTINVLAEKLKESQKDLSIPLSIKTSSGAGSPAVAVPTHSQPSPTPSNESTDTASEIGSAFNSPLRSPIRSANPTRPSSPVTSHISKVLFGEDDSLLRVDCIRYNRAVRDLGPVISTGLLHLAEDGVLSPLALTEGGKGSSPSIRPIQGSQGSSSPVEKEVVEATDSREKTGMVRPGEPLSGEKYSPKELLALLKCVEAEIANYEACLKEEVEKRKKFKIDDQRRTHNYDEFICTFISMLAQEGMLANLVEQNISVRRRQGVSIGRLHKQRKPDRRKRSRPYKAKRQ

[3] = cytotoxicity in HPDE-C7 cells, cell-based, fluorescence, HTS (AID 430); assay type: functional; conditions: Homo sapiens
[4] = cytotoxicity in KRAS-transformed pancreatic duct cells, primary screen, cell-based, fluorescence, HTS (AID 431); assay type: functional; conditions: Homo sapiens;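 note: cell line used: HPDE-C7K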
[5] = molecular target: Heat shock protein HSP 90-alpha (Homo sapiens, UniProt P07900); assay: Luminescence-based dose response biochemical high throughput screening assay for inhibitors of the Heat Shock Protein 90 (HSP90). [Related pubchem assays: 1831 (Summary AID.), 1846 (Confirmation screen.), 1789 (Primary screen.)]
[6] = molecular target: T1, Tyrosine-protein phosphatase non-receptor type 7 (Homo sapiens, UniProt P35236); assay: inhibitors of human HePTP phosphatase, […], biochemical, absorbance, leukemia target (AID 521); assay type: functional
T1 sequence (P35236 whole entry): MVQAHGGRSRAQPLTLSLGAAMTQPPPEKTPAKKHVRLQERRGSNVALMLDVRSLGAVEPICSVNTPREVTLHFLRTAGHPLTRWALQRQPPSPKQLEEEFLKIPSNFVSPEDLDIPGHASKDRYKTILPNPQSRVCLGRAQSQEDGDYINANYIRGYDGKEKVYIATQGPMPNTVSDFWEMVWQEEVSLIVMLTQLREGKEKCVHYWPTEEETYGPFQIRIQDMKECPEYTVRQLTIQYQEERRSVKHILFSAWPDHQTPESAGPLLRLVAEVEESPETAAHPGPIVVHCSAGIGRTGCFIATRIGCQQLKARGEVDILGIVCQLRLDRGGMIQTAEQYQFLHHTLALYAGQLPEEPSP

[7] = molecular target: T2, Voltage-gated N-type calcium channel alpha-1B subunit/Amyloid beta A4 precursor protein-binding family A member 1 (Homo sapiens, UniProt Q00975+Q02410); assay type: protein assay
T2 sequence (Q00975 whole entry): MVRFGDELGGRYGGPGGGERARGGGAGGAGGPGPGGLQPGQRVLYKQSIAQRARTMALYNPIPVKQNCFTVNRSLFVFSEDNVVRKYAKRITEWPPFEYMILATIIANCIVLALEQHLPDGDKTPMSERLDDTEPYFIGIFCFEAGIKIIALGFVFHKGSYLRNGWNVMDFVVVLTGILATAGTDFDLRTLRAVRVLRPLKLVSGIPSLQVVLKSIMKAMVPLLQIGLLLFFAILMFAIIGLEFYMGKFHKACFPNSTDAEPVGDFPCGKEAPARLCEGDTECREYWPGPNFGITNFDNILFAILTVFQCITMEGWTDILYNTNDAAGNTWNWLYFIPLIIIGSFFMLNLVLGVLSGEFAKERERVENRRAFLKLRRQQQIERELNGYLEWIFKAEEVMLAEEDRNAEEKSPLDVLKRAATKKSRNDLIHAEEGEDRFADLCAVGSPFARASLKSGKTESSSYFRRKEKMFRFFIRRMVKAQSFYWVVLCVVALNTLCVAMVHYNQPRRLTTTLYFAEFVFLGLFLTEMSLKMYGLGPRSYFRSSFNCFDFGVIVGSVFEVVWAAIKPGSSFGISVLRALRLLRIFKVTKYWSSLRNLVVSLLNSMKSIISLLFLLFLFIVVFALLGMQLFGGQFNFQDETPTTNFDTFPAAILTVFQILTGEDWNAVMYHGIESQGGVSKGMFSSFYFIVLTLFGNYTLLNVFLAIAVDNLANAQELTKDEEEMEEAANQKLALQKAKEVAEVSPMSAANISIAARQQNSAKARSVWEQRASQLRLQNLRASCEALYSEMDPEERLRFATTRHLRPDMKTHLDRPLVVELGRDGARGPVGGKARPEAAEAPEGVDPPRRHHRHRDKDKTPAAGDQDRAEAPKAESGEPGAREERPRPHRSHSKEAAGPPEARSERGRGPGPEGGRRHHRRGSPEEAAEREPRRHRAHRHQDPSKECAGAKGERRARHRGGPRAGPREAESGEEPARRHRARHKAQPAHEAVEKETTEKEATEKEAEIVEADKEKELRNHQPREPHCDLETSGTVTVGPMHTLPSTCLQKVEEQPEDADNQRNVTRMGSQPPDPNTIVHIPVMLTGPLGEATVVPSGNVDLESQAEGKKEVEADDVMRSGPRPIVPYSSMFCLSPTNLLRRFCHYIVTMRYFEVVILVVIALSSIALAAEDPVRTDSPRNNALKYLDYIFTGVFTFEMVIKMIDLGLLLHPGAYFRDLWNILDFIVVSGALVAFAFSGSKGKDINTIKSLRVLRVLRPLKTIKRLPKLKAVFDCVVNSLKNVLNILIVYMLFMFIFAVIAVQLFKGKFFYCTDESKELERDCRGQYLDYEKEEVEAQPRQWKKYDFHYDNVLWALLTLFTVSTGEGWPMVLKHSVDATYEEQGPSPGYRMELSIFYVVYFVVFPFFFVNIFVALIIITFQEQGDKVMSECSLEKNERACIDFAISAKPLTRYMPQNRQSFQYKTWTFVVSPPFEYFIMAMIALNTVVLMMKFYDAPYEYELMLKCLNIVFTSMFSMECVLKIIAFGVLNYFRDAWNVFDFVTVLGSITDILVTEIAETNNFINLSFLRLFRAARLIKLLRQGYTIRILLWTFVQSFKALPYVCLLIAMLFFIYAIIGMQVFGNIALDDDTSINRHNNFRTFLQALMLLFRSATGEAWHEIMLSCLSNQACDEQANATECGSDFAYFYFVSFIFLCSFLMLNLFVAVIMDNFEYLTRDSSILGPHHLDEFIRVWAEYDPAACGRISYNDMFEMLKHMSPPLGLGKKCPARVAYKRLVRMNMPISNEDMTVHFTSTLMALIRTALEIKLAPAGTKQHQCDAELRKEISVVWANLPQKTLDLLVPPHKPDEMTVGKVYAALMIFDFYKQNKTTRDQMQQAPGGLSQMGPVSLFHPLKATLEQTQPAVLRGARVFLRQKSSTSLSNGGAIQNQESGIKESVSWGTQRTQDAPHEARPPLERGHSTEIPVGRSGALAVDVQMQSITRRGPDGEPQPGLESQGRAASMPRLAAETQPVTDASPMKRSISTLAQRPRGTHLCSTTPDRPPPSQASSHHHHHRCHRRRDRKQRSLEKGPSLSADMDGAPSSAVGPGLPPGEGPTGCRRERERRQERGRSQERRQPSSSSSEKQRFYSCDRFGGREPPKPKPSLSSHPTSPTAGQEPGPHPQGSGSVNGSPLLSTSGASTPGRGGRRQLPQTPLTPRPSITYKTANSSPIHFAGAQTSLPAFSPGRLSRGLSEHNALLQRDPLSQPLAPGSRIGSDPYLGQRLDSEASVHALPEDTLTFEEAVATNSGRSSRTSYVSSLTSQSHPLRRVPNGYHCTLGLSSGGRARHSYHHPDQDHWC
T2 sequence (Q02410 whole entry): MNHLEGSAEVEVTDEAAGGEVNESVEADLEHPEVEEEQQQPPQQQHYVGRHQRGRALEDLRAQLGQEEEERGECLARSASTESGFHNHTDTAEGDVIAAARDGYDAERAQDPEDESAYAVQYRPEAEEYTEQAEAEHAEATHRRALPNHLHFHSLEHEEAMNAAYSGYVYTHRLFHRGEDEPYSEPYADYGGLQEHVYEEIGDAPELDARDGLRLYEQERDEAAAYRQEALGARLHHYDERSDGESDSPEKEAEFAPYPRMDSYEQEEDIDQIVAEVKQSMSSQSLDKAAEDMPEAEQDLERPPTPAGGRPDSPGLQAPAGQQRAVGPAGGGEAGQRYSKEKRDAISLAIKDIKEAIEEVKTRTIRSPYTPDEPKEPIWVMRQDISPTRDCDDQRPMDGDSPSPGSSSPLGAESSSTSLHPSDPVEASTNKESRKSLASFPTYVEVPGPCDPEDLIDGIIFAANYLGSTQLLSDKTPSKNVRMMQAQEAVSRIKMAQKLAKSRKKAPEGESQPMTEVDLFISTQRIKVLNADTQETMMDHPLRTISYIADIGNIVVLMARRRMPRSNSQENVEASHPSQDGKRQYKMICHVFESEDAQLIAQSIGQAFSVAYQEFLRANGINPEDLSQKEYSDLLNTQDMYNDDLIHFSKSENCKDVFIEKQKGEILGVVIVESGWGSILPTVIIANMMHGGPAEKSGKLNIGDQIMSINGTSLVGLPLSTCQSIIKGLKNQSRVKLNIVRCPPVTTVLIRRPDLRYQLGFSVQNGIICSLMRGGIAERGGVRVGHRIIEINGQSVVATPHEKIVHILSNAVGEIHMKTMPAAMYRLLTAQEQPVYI

[8] = molecular target: T2, Voltage-gated N-type calcium channel alpha-1B subunit/Amyloid beta A4 precursor protein-binding family A member 1; assay type: protein assay; remark: listed apart in the source
[9] = molecular target: Bifunctional protein GlmU (Mycobacterium tuberculosis, UniProt P9WMN3); assay: Inhibitors of Mycobacterial Glucosamine-1-phosphate acetyl transferase (GlmU). Secondary screen.; design: species or system Mycobacterium tuberculosis H37Rv
Chain of Bifunctional protein GlmU (P9WMN3 whole entry): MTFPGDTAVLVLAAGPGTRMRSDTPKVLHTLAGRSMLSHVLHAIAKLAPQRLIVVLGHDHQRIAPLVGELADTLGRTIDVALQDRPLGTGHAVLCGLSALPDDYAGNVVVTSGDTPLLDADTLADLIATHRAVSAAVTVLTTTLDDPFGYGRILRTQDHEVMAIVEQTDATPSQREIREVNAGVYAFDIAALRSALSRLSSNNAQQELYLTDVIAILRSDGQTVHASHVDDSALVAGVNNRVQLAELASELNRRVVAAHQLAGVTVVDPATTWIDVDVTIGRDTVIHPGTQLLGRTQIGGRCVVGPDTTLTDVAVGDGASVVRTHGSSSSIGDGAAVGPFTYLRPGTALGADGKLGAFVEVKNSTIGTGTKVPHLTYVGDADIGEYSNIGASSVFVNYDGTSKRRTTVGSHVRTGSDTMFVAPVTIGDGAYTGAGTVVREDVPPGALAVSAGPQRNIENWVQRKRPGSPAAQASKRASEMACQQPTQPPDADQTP

Bcl-2-related protein A1 [10] = molecular target: T3, Bcl-2-related protein A1 (Mus musculus, UniProt Q07440); assay: Bfl-1 inhibitors, primary screen, biochemical, fluorescence polarization, FITC-Bid, mouse (AID 432)
T3 sequence (Q07440 whole entry): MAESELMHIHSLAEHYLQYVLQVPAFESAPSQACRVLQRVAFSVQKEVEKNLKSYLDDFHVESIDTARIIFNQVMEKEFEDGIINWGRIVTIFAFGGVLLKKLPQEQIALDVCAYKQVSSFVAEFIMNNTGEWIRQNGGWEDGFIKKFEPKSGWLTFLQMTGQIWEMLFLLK

Bcl-2-related protein A1 [11] = molecular target: T3, Bcl-2-related protein A1; assay: Bfl-1 inhibitors blocking BH3 peptide binding, confirmation, biochemical, TR-FRET, mouse Bfl-1 (AID 621);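 note: TR-FRET binding of GST-Bfl-1 to FITC-labelled Bid peptide via terbium antibody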
[12] = molecular target: Dual specificity protein phosphatase 6 (Rattus norvegicus, UniProt Q64346); assay: MKP-3 phosphatase inhibitors, primary screen, biochemical, rat enzyme, in vitro (AID 425)
Chain of Dual specificity protein phosphatase 6 (Q64346 whole entry, the tested form may be a part): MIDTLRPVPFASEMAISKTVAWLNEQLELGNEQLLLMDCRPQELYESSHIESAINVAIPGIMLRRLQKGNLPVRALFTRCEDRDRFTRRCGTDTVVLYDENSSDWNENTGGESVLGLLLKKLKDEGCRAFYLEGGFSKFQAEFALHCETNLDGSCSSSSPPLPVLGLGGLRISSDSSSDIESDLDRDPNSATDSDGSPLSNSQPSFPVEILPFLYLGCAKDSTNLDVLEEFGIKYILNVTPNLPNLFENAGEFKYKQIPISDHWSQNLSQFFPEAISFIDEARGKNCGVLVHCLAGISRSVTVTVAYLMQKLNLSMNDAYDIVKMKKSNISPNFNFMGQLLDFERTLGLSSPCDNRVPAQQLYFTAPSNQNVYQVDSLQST

[13] = inhibitors of HIV Env-driven cell fusion, dose response, cherry-pick (AID 652057); assay type: functional, cell-based
[14] = CEM21 lymphoblast cell cytotoxicity, dose response, cytotoxicity control for viral fusion inhibitor project, CellTiter-Glo luminescence, cherry-picked (AID 652042); assay type: functional, cell-based;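 note: potency for signal decrease meaning cytotoxicity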
[15] = ZM109 Env clade C HIV-1 fusion inhibitors, dose response, HeLa effector, CEM target cells, luciferase, cherry-pick (AID 652058); assay type: functional, cell-based
[16] = off-target signal loss in HeLa-CEM21 co-culture – HeLa F-luc CTL cells, cherry-picked, counter-screen for HIV-1 Env fusion inhibitor project, dose response (AID 652040); assay type: functional, cell-based;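 note: potency for signal decrease marking cytotoxic or nonspecific inhibition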
[17] = inhibitors of clade B AD8 Env fusion, dose response, cell-based, cherry-pick (AID 652062); assay type: functional;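 note: luciferase signal from cell-cell fusion driven by HIV-1 clade B AD8 Env; potency is for inhibitors of fusion seen as a drop in luminescence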

Question: Which EC50 [1] does the source give for O=C(CCC(=O)N1CCc2ccccc21)Nc1ccccc1 here?
Answer: > 50 µM (not active)

Question: With Cc1sc(NC(=O)CSc2nnc3scc(-c4ccccc4)n23)c(C#N)c1C as the compound, how does the IC50 [2] read?
Answer: > 50 µM (not active)

Question: What about the EC50 [3] of the same compound?
Answer: 8.93 µM (active)

Question: What about the EC50 [4] of the same compound?
Answer: 8.96 µM (active)

Question: With CC(=O)Oc1ccc(Nc2ccccc2)cc1 as the compound, how does the IC50 [5] read?
Answer: 6.62 µM (active)

Question: For CC(C)(C#N)Nc1ccccc1, which IC50 [6] is on record?
Answer: > 100 µM (not active)

Question: Which results are given for N=C1/C(=C\c2ccc(-c3ccc(C(=O)O)cc3)o2)C(=O)N=C2SC=C(c3ccccc3)N12?
Answer: IC50 [7]: 4.12 µM (active); IC50 [8]: 29.2 µM (active); IC50 [9]: 182 µM (active)

Question: Which IC50 (Bcl-2-related protein A1 [10]) does the source give for Cc1ccc(-c2nn3c(C)nnc3s2)cc1NC(=O)c1ccc(-c2ccc(Cl)cc2Cl)o1 here?
Answer: > 100 µM (not active)

Question: What about the IC50 (Bcl-2-related protein A1 [11]) of the same compound?
Answer: > 100 µM (not active)

Question: And the IC50 [12]?
Answer: > 10 µM (not active)

Question: What about the AC50 [13] of the same compound?
Answer: 6.5 µM (active)

Question: And the AC50 [14]?
Answer: 6.8 µM (active)

Question: What about the AC50 [15] of the same compound?
Answer: 4.6 µM (active)

Question: What about the AC50 [16] of the same compound?
Answer: 9.7 µM (active)

Question: And the AC50 [17]?
Answer: 5.1 µM (active)
